# Data published in PubChem BioAssay AID1963834 (Molecular Pharmacology Branch, DTP, NCI, 2024).
# Test system: 873145-292-R-J1-PDC complex spheroid viability
# Experiment: Anticancer human tumor 873145-292-R-J1-PDC patient-derived renal clear cell carcinoma cell line growth inhibition [POLQ]
# Details: for IC50: curve of first compound; for viability, T/C: stronger effect = lower value
# Method in brief: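 Three-cell-type spheroids modelling solid tumor plus stroma served as the readout system; POL inhibitors were tested individually and in combination, concentration ranges set by clinical Cmax where known.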
# [1] = second compound 0.0316 µM, first compound 0.0316 µM
# [2] = second compound 0.0316 µM, first compound 0.1 µM
# [3] = second compound 0.0316 µM, first compound 0.316 µM
# [4] = second compound 0.0316 µM, first compound 1 µM
# [5] = second compound 0.0316 µM, first compound 3.16 µM
# [6] = second compound 0.0316 µM, first compound 10 µM
# [7] = second compound 0.1 µM, first compound 0.0316 µM
# [8] = second compound 0.1 µM, first compound 0.1 µM
# [9] = second compound 0.1 µM, first compound 0.316 µM
# [10] = second compound 0.1 µM, first compound 1 µM
# [11] = second compound 0.1 µM, first compound 3.16 µM
# [12] = second compound 0.1 µM, first compound 10 µM
# [13] = second compound 0.316 µM, first compound 0.0316 µM
# [14] = second compound 0.316 µM, first compound 0.1 µM
# [15] = second compound 0.316 µM, first compound 0.316 µM
# [16] = second compound 0.316 µM, first compound 1 µM
# [17] = second compound 0.316 µM, first compound 3.16 µM
# [18] = second compound 0.316 µM, first compound 10 µM
# [19] = second compound 1 µM, first compound 0.0316 µM
# [20] = second compound 1 µM, first compound 0.1 µM
# [21] = second compound 1 µM, first compound 0.316 µM
# [22] = second compound 1 µM, first compound 1 µM
# [23] = second compound 1 µM, first compound 3.16 µM
# [24] = second compound 1 µM, first compound 10 µM
# [25] = second compound 3.16 µM, first compound 0.0316 µM
# [26] = second compound 3.16 µM, first compound 0.1 µM
# [27] = second compound 3.16 µM, first compound 0.316 µM
# [28] = second compound 3.16 µM, first compound 1 µM
# [29] = second compound 3.16 µM, first compound 3.16 µM
# [30] = second compound 3.16 µM, first compound 10 µM
# [31] = second compound 10 µM, first compound 0.0316 µM
# [32] = second compound 10 µM, first compound 0.1 µM
# [33] = second compound 10 µM, first compound 0.316 µM
# [34] = second compound 10 µM, first compound 1 µM
# [35] = second compound 10 µM, first compound 3.16 µM
# [36] = second compound 10 µM, first compound 10 µM
# 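Note: spheroids exposed to compounds for 7 days before viability readout.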
# 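Throughout, for viability, T/C: luminescence signal used as surrogate for viable cell content; 100% = DMSO vehicle control viability.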
compound,measurement,setting,value
C#Cc1c(F)ccc2cc(O)cc(-c3ncc4c(N5CC6CCC(C5)N6)nc(OCC56CCCN5CC(F)C6)nc4c3F)c12 (stereo not drawn) + Nc1ccc(C#CCN(C(=O)Cc2ncc(C(F)(F)F)cc2C(F)(F)F)c2ccc(F)cc2)nn1,IC50,second compound 0.0316 µM,> 10 µM
same,IC50,second compound 0.1 µM,> 10 µM
same,IC50,second compound 0.316 µM,> 10 µM
same,IC50,second compound 1 µM,> 10 µM
same,IC50,second compound 3.16 µM,> 10 µM
same,IC50,second compound 10 µM,> 10 µM
same,"viability, T/C",[1],102%
same,"viability, T/C",[2],103%
same,"viability, T/C",[3],106%
same,"viability, T/C",[4],99.4%
same,"viability, T/C",[5],105%
same,"viability, T/C",[6],97.1%
same,"viability, T/C",[7],115%
same,"viability, T/C",[8],110%
same,"viability, T/C",[9],96.6%
same,"viability, T/C",[10],108%
same,"viability, T/C",[11],101%
same,"viability, T/C",[12],91.9%
same,"viability, T/C",[13],101%
same,"viability, T/C",[14],106%
same,"viability, T/C",[15],84%
same,"viability, T/C",[16],104%
same,"viability, T/C",[17],98.8%
same,"viability, T/C",[18],86.7%
same,"viability, T/C",[19],108%
same,"viability, T/C",[20],93.8%
same,"viability, T/C",[21],111%
same,"viability, T/C",[22],97.9%
same,"viability, T/C",[23],104%
same,"viability, T/C",[24],95.4%
same,"viability, T/C",[25],106%
same,"viability, T/C",[26],100%
same,"viability, T/C",[27],107%
same,"viability, T/C",[28],106%
same,"viability, T/C",[29],90.7%
same,"viability, T/C",[30],101%
same,"viability, T/C",[31],108%
same,"viability, T/C",[32],98.7%
same,"viability, T/C",[33],104%
same,"viability, T/C",[34],98.2%
same,"viability, T/C",[35],109%
same,"viability, T/C",[36],105%
C=CC(=O)N1CCN(c2nc(=O)n(-c3c(C)ccnc3C(C)C)c3nc(-c4c(O)cccc4F)c(F)cc23)C(C)C1 (stereo not drawn) + Nc1ccc(C#CCN(C(=O)Cc2ncc(C(F)(F)F)cc2C(F)(F)F)c2ccc(F)cc2)nn1,IC50,second compound 0.0316 µM,> 10 µM
same,IC50,second compound 0.1 µM,> 10 µM
same,IC50,second compound 0.316 µM,> 10 µM
same,IC50,second compound 1 µM,> 10 µM
same,IC50,second compound 3.16 µM,> 10 µM
same,IC50,second compound 10 µM,> 10 µM
same,"viability, T/C",[1],112%
same,"viability, T/C",[2],105%
same,"viability, T/C",[3],106%
same,"viability, T/C",[4],120%
same,"viability, T/C",[5],132%
same,"viability, T/C",[6],134%
same,"viability, T/C",[7],111%
same,"viability, T/C",[8],110%
same,"viability, T/C",[9],117%
same,"viability, T/C",[10],124%
same,"viability, T/C",[11],119%
same,"viability, T/C",[12],128%
same,"viability, T/C",[13],116%
same,"viability, T/C",[14],117%
same,"viability, T/C",[15],103%
same,"viability, T/C",[16],126%
same,"viability, T/C",[17],135%
same,"viability, T/C",[18],123%
same,"viability, T/C",[19],107%
same,"viability, T/C",[20],110%
same,"viability, T/C",[21],107%
same,"viability, T/C",[22],129%
same,"viability, T/C",[23],136%
same,"viability, T/C",[24],126%
same,"viability, T/C",[25],112%
same,"viability, T/C",[26],116%
same,"viability, T/C",[27],113%
same,"viability, T/C",[28],131%
same,"viability, T/C",[29],135%
same,"viability, T/C",[30],139%
same,"viability, T/C",[31],126%
same,"viability, T/C",[32],113%
same,"viability, T/C",[33],119%
same,"viability, T/C",[34],132%
same,"viability, T/C",[35],134%
same,"viability, T/C",[36],142%
CC(C)n1c(=O)n(C)c2cnc3cc(F)c(-c4ccc(OCCCN5CCCCC5)nc4)cc3c21 + Nc1ccc(C#CCN(C(=O)Cc2ncc(C(F)(F)F)cc2C(F)(F)F)c2ccc(F)cc2)nn1,IC50,second compound 0.0316 µM,> 10 µM
same,IC50,second compound 0.1 µM,> 10 µM
same,IC50,second compound 0.316 µM,> 10 µM
same,IC50,second compound 1 µM,> 10 µM
same,IC50,second compound 3.16 µM,> 10 µM
same,IC50,second compound 10 µM,> 10 µM
same,"viability, T/C",[1],97.1%
same,"viability, T/C",[2],106%
same,"viability, T/C",[3],97.8%
same,"viability, T/C",[4],102%
same,"viability, T/C",[5],99.6%
same,"viability, T/C",[6],107%
same,"viability, T/C",[7],107%
same,"viability, T/C",[8],112%
same,"viability, T/C",[9],97.1%
same,"viability, T/C",[10],108%
same,"viability, T/C",[11],93.8%
same,"viability, T/C",[12],80.5%
same,"viability, T/C",[13],104%
same,"viability, T/C",[14],115%
same,"viability, T/C",[15],97%
same,"viability, T/C",[16],103%
same,"viability, T/C",[17],104%
same,"viability, T/C",[18],72.1%
same,"viability, T/C",[19],109%
same,"viability, T/C",[20],106%
same,"viability, T/C",[21],113%
same,"viability, T/C",[22],96%
same,"viability, T/C",[23],97%
same,"viability, T/C",[24],85.8%
same,"viability, T/C",[25],99.8%
same,"viability, T/C",[26],111%
same,"viability, T/C",[27],92.4%
same,"viability, T/C",[28],102%
same,"viability, T/C",[29],101%
same,"viability, T/C",[30],86.1%
same,"viability, T/C",[31],110%
same,"viability, T/C",[32],101%
same,"viability, T/C",[33],108%
same,"viability, T/C",[34],107%
same,"viability, T/C",[35],104%
same,"viability, T/C",[36],86%
CCc1cc2c(N3CCc4c(cc(Cn5ccnc5)cc4-c4cn(C)nc4C(F)(F)F)C3=O)cc(C)nc2c(OC)n1 + Nc1ccc(C#CCN(C(=O)Cc2ncc(C(F)(F)F)cc2C(F)(F)F)c2ccc(F)cc2)nn1,IC50,second compound 0.0316 µM,> 10 µM
same,IC50,second compound 0.1 µM,> 10 µM
same,IC50,second compound 0.316 µM,> 10 µM
same,IC50,second compound 1 µM,> 10 µM
same,IC50,second compound 3.16 µM,> 10 µM
same,IC50,second compound 10 µM,> 10 µM
same,"viability, T/C",[1],92.6%
same,"viability, T/C",[2],110%
same,"viability, T/C",[3],101%
same,"viability, T/C",[4],91.2%
same,"viability, T/C",[5],80.6%
same,"viability, T/C",[6],75.2%
same,"viability, T/C",[7],103%
same,"viability, T/C",[8],100%
same,"viability, T/C",[9],77.9%
same,"viability, T/C",[10],93%
same,"viability, T/C",[11],79.2%
same,"viability, T/C",[12],68.6%
same,"viability, T/C",[13],94.4%
same,"viability, T/C",[14],109%
same,"viability, T/C",[15],74%
same,"viability, T/C",[16],90.7%
same,"viability, T/C",[17],95.8%
same,"viability, T/C",[18],73.6%
same,"viability, T/C",[19],101%
same,"viability, T/C",[20],92.5%
same,"viability, T/C",[21],91.9%
same,"viability, T/C",[22],95.8%
same,"viability, T/C",[23],77.6%
same,"viability, T/C",[24],76.8%
same,"viability, T/C",[25],97.9%
same,"viability, T/C",[26],104%
same,"viability, T/C",[27],97.6%
same,"viability, T/C",[28],93%
same,"viability, T/C",[29],85.7%
same,"viability, T/C",[30],78.9%
same,"viability, T/C",[31],105%
same,"viability, T/C",[32],101%
same,"viability, T/C",[33],98%
same,"viability, T/C",[34],97.3%
same,"viability, T/C",[35],89%
same,"viability, T/C",[36],69.2%
